Results from patent US20170313974A1, “Modulation of Tissue Fatty Acid Composition of a Host by Human Gut Bacteria” (University College Cork, National University of Ireland, priority 2007, published 2017).

Columns and labels:
SCID mice = test: Tissue fatty acid composition, SCID mouse colitis feeding study (10 weeks); format: in vivo
Method: (§1) Materials and Methods Severe Combined Immuno Deficient (SCID) mice were used in this study, which had been induced with colitis through adoptive transfer of splenic CD4^+ CD45RB^high T cells from BALB/c mice. […] Ten weeks after colitis induction, cytokine production by splenocytes was measured in vitro by ELISA, myeloperoxidase (MPO) activity was determined in colonic homogenates and fatty acid composition in liver, adipose tissue, cecum and colon was determined by gas liquid chromatography (GLC). Similar studies have also been conducted in pigs (data not shown here) and similar results obtained.
SCID mice were purchased from Harlan ltd. (Briester, Oxon, UK) at 6 weeks of age and fed a normal diet for 1 week to stabilize all metabolic conditions. Each cage contained one mouse. Mice were exposed to a 12-h light:dark cycle and maintained at a constant temperature of 25° C. One week after arrival, mice were divided into five groups for different dietary treatments (Table I).
For linoleic acid and c9t11 CLA treatment, a powdered diet blended with the drug was administered for 10 weeks to yield a dose of drug at approximately 90 mg/day/mouse (this is based on preliminary experiments by Bassaganya-Riera et al. (22) that established an optimal dose of fatty acids of 1 g/100 g of diet).
After the adoptive transfer, mice were weighed three times a week and examined for clinical signs of disease associated with colitis (ie. rectal bleeding, diarrhoea and rectal prolapse). After 10 weeks on experimental diets, the mice were sacrificed by cervical dislocation. Livers, adipose tissue, spleens, colons and cecums were removed from the carcasses, blotted dry on filter paper, weighed and frozen in liquid nitrogen. All samples were stored at −80° C. until processed. The colon was divided into different sections for MPO activity and fatty acid composition.
Lipids were extracted with Chloroform:Methanol 2:1 v/v according to Folch et al. (25). Briefly, tissue or faecal samples, ˜1 g liver, 300 mg small intestine, 200 mg adipose tissue, 250 mg colon, 800 mg cecum or 100 mg feaces were homogenised in over a 25 fold excess of CHCl3:CH3OH (2:1 v/v) and washed with 0.88% KCl solution. Excess solvent was dried down under a gentle stream of N2 at 40° C. and lipids were stored at −20° C. in 1 ml chloroform. Fatty acid methyl esters (FAME) were prepared using first 10 ml 0.5N NaOH in methanol for 10 min at 90° C. followed by 10 ml 14% BF3 in methanol for 10 min at 90° C. (26). FAME was recovered with hexane. Prior to GC analysis samples were dried over 0.5 g of anhydrous sodium sulphate for an hour and stored at −20° C. FAME were separated by gas liquid chromatography (GLC Varian 3400, Varian, Walnut Creek, Calif. USA fitted with a flame ionization detector) using a Chrompack CP Sil 88 column (Chrompack, Middleton, The Netherlands, 100 m×0.25 mm i.d., 0.20 μm film thickness) and He as a carrier gas. The column oven was programmed to be held initially at 80° C. for 8 minutes then increased 8.5° C./min to a final column temperature of 200° C. The injection volume used was 0.6 μl with automatic sample injection with a splitless on SPI on-column temperature programmable injector. Data was recorded and analysed on a Minichrom PC system (VG Data System, Manchester, U.K.). Tri-heptadecanoate (Sigma) was used as an internal standard, and peaks were identified with reference to retention times of fatty acids in a standard mixture. All fatty acid results are shown as mean±SD (n=8) g/100 g FAME.

splenocytes = test: Cytokine production by stimulated splenocytes of fed SCID mice with colitis; format: in vivo
Method: as §1
Cytokine production in response to defined stimuli, in vitro, was measured using enzyme-linked immunosorbent assay (ELISA). Splenocyte isolation was performed using an erythrocyte lysing kit (R&D Systems). The spleens of all mice were removed at the time of sacrifice, blotted on filter paper and weighed. Each spleen was immediately placed in Hanks' buffer containing 10% fetal calf serum. The spleen was teased apart and sieved through a cell strainer into a 50 ml centrifuge tube. Cells were centrifuged for 10 minutes at 200 g. The cells were resuspended in 2 ml M-lyse buffer, which lyses red blood cells, and incubated for 8 minutes at room temperature. Lysis was deactivated using wash buffer and the cell suspension was centrifuged for 10 minutes at 200 g. Cells were resuspended in DMEM (10% fetal calf serum, 1% Pen/Strep, Sigma) and diluted to 1×10^6 cells/ml for in vitro culturing. The isolated lymphocytes were cocultured with the proinflammatory bacterium Salmonella typhimurium UK1 (1×10^6 cells/ml) and with antiCD3-antiCD28 monoclonal antibodies for 48 hours at 37° C. Cell supernatants were isolated and stored at −80° C. Cytokine analysis was performed on the supernatants using a BD™ Cytometric Bead Array (CBA) Mouse Inflammation Kit (BD Biosciences, US).

[1] = stimulation with S. typhimurium UK1
[2] = stimulation with antiCD3-antiCD28

With `CCCCCC/C=C/C=C\CCCCCCCC(=O)O` [c9, t11 CLA, cis-9, trans-11 CLA] the “16:1n-7 (palmitoleic acid) in all tissues” value (SCID mice; all tissues) was “higher”, the “20:4n-6 in cecum digests” value (SCID mice; cecum digests) was “significant decrease” and the “16:0 (palmitic acid) in colon” value (SCID mice; colon) was “significantly higher”. For the same compound, the “arachidonic acid, 20:4n-6 (AA) in liver” value (SCID mice; compared to other groups) was “decrease”, the “c9, t11 CLA in all tissues” value (SCID mice; compared to other groups) was “much higher” and the IFN-γ levels (splenocytes; [1]) was “reduced”. The IL-6 levels (splenocytes; [1]) was “reduced”, the TNF-α levels (splenocytes; [1]) was 1428.7 and the IFN-γ levels (splenocytes; [2]) was 1334.2. The IL-6 levels (splenocytes; [2]) was 213.7 and the TNF-α levels (splenocytes; [2]) was 458.9.
